Measured values published in the NIST ThermoML archive (doi:10.1021/je800463k).

Assay: mn = molality of the nth substance listed, in mol/kg
Conditions: 101 kPa, Liquid; for speed of sound: Frequency=2 MHz; for mass density: Pycnometric method; for electrical conductivity: Frequency=0.001 MHz, Alternating current cell with electrodes

CC(=O)[O-].CC(=O)[O-].[Mg+2] [magnesium acetate] + CO
Conditions	electrical conductivity [S/m]	mass density [kg/m3]	speed of sound [m/s]	viscosity [mPa·s]
308.15 K, m1 = 0.014	–	–	–	0.4859
308.15 K, m1 = 0.018	–	–	–	0.4878
308.15 K, m1 = 0.0339	–	–	–	0.496
308.15 K, m1 = 0.0646	–	–	–	0.5027
308.15 K, m1 = 0.0855	–	–	1073.8	–
308.15 K, m1 = 0.1012	–	–	–	0.5234
308.15 K, m1 = 0.1024	–	–	1077.1	–
308.15 K, m1 = 0.13	–	–	–	0.532
308.15 K, m1 = 0.1402	–	–	1078.5	0.5368
308.15 K, m1 = 0.1455	–	–	1075.3	–
308.15 K, m1 = 0.17	–	–	–	0.5518
308.15 K, m1 = 0.1837	–	–	1078.1	–
308.15 K, m1 = 0.2003	–	–	–	0.5625
308.15 K, m1 = 0.2192	–	–	1081.5	–
308.15 K, m1 = 0.2422	–	–	1081.2	0.5782
308.15 K, m1 = 0.2453	–	–	–	0.578
308.15 K, m1 = 0.2889	–	–	1082	0.5942
308.15 K, m1 = 0.3042	–	–	1083.6	–
308.2 K, m1 = 0.0093	–	779.23	–	–
308.7 K, m1 = 0.1112	–	786.87	–	–
308.9 K, m1 = 0.053	–	781.63	–	–
308.9 K, m1 = 0.1798	–	791.35	–	–
308.9 K, m1 = 0.2003	–	791.74	–	–
308.9 K, m1 = 0.2668	–	795.13	–	–
308.95 K, m1 = 0.0855	–	783.63	–	–
309.1 K, m1 = 0.0059	–	777.74	–	–
309.1 K, m1 = 0.1455	–	788.87	–	–
309.45 K, m1 = 0.2192	–	791.87	–	–
309.5 K, m1 = 0.3042	–	796.38	–	–
309.75 K, m1 = 0.0646	–	782.66	–	–
309.95 K, m1 = 0.2422	–	793.32	–	–
310.25 K, m1 = 0.014	–	778.28	–	–
310.25 K, m1 = 0.0339	–	779.95	–	–
310.5 K, m1 = 0.1402	–	787	–	–
310.65 K, m1 = 0.0093	–	776.87	–	–
311 K, m1 = 0.2668	–	793.11	–	–
311.2 K, m1 = 0.1112	–	784.4	–	–
311.2 K, m1 = 0.3042	–	794.7	–	–
311.4 K, m1 = 0.053	–	779.24	–	–
311.5 K, m1 = 0.0855	–	781.28	–	–
311.5 K, m1 = 0.1798	–	788.93	–	–
311.55 K, m1 = 0.0059	–	775.36	–	–
311.6 K, m1 = 0.1455	–	786.44	–	–
311.9 K, m1 = 0.2192	–	789.45	–	–
312.1 K, m1 = 0.1402	–	785.37	–	–
312.15 K, m1 = 0.0646	–	780.21	–	–
312.3 K, m1 = 0.0093	–	775.23	–	–
312.35 K, m1 = 0.2003	–	788.52	–	–
312.45 K, m1 = 0.2422	–	790.83	–	–
312.7 K, m1 = 0.0339	–	777.5	–	–
312.75 K, m1 = 0.014	–	775.84	–	–
312.9 K, m1 = 0.053	–	777.6	–	–
313.05 K, m1 = 0.0855	–	779.61	–	–
313.1 K, m1 = 0.2668	–	791.07	–	–
313.15 K, m1 = 0.0059	0.0376	–	1053.9	–
313.15 K, m1 = 0.0093	0.0598	–	1054.5	–
313.15 K, m1 = 0.014	–	–	–	0.4545
313.15 K, m1 = 0.018	0.0685	–	1055.7	0.4559
313.15 K, m1 = 0.0339	0.089	–	–	0.4632
313.15 K, m1 = 0.053	0.1041	–	1059.6	–
313.15 K, m1 = 0.0646	0.1137	–	–	0.4698
313.15 K, m1 = 0.0855	0.1243	–	1059	–
313.15 K, m1 = 0.1012	–	–	–	0.4881
313.15 K, m1 = 0.1024	0.1348	–	1061	–
313.15 K, m1 = 0.13	–	–	–	0.4956
313.15 K, m1 = 0.1402	0.1535	–	1062.7	0.5
313.15 K, m1 = 0.1455	0.1577	–	1059.1	–
313.15 K, m1 = 0.17	–	–	–	0.5145
313.15 K, m1 = 0.1837	0.166	–	1061.4	–
313.15 K, m1 = 0.2003	–	–	–	0.5239
313.15 K, m1 = 0.2192	–	–	1064.3	–
313.15 K, m1 = 0.2422	0.1817	–	1064.9	0.5375
313.15 K, m1 = 0.2453	–	–	–	0.5373
313.15 K, m1 = 0.2889	0.1868	–	1066.1	0.5513
313.15 K, m1 = 0.3042	–	–	1067.2	–
313.55 K, m1 = 0.3042	–	792.2	–	–
313.65 K, m1 = 0.1112	–	782	–	–
313.95 K, m1 = 0.1455	–	784.03	–	–
313.95 K, m1 = 0.1798	–	786.45	–	–
314.05 K, m1 = 0.0059	–	772.92	–	–
314.55 K, m1 = 0.1402	–	782.97	–	–
314.6 K, m1 = 0.0646	–	777.82	–	–
314.7 K, m1 = 0.0093	–	772.8	–	–
314.8 K, m1 = 0.2003	–	786.04	–	–
314.8 K, m1 = 0.2422	–	788.41	–	–
314.8 K, m1 = 0.2668	–	789.38	–	–
315.1 K, m1 = 0.0339	–	775.12	–	–
315.2 K, m1 = 0.014	–	773.47	–	–
315.4 K, m1 = 0.053	–	775.16	–	–
315.45 K, m1 = 0.0855	–	777.19	–	–
316.05 K, m1 = 0.3042	–	789.78	–	–
316.35 K, m1 = 0.0059	–	770.56	–	–
316.35 K, m1 = 0.1798	–	784.05	–	–
316.4 K, m1 = 0.1455	–	781.57	–	–
316.95 K, m1 = 0.0855	–	775.61	–	–
316.95 K, m1 = 0.2668	–	787.26	–	–
317 K, m1 = 0.0093	–	770.44	–	–
317.25 K, m1 = 0.2003	–	783.64	–	–
318.7 K, m1 = 0.1455	–	779.18	–	–
